Test results published in patent publication US6608032B1, “Medicinal compositions” (Takara Shuzo Co., Ltd., priority 1999, dated 2003).

Legend:
[1] = system: celiac macrophages; experiment: TPA-induced IL-6 production in celiac macrophages; type: cell-based, mouse; conditions: 5 μl of 20, 10 or 5 mM solution per 500 μl; 14 hours; concentration dependent; FIG. 16
Protocol: 4 ml of RPMI 1640 medium (Bio Whittaker, 12-702F) containing 10% fetal calf serum was intraperitoneally injected into ddy mouse (Japan SLC, female, 7 weeks old) The medium was removed after extensive massage to obtain celiac cells. The celiac cells were suspended in RPMI 1640 medium containing 10% fetal calf serum at a concentration of 10^6 cells/ml. 500 μl of the suspension was added to each well of a 48-well microtiter plate and the plate was incubated at 37° C. for 2 hours in the presence of 5% CO2. Adhesive cells obtained by removing the culture supernatant were used as celiac macrophaaes. 500 μl of fresh Dulbecco's modified Eagle's medium (Bio Whittaker, 12-917F) without Phenol Red containing 10% fetal calf serum and 2 mM L-glutamine was added to each well. 5 μl of 20, 10 or 5 mM aqueous solution of agarobiose obtained in Referential Example 1 and 5 μl of 10 μg/ml aqueous solution of 12-O-tetradecanoylphorbol 13-acetate (TPA, Gibco, 13139-019) were added to the well. The plate was incubated for additional 14 hours, and the culture supernatant was then collected. The content of interleukin 6 (IL-6) in the culture supernatant was measured using enzyme immuno sandwich assay (ELISA; Matched antibody Pair Sample Pak-mouse IL6, Endogen). As a control, a group to which the agarobiose aqueous solution or the TPA aqueous solution was not added was provided. […]

[2] = system: human IL-10; experiment: IL-10 production from DSEK cells (ELISA); type: cell-based; conditions: DSEK culture supernatant
Protocol: 150 μl of a culture supernatant was collected from a well containing a culture of DSEK cells over time at intervals of 24 hours. The effects of agarobiose on the production (expression) of cytokines (human TGF-β, human FGF-β and human IL-10) from the cell were determined using ELISA kits specific for the respective cytokines (from Intergen for human FGF-β and human IL-10; and from Promega for human TGF-β).

[3] = system: RAW264.7 cells; experiment: Prostaglandin E2 generation by crude enzyme fraction of RAW264.7 cells pre-treated with sample and LPS; type: cell-based; conditions: cells treated with 200 μl of 10 mM sample per 20 ml, 5 hours before LPS
Protocol: (1) RAW264.7 cells (ATCC TIB 71) were suspended in Dulbecco's modified Eagle's medium (Bio Whittaker, 12-604F) containing 10% fetal calf serum (Gibco) at a concentration of 1×10^6 cells/ml. 20 ml of the suspension was added to a 10-cm Petri dish and the dish was incubated at 37° C. overnight in the presence of 5% CO2. 200 μl of a solution containing agarohexaose or DGE (obtained in Example 15-(2) below) at a concentration of 10 mM in water was added to the dish. The dish was incubated for 5 hours. 200 μl of a solution containing lipopolysaccharide (LPS, Sigma, L-2012) at a concentration of 100 μg/ml in water was added thereto. The dish was incubated for additional 12 hours. As a control, 200 μL of water was added in place of the sample. The cells were recovered by detaching the cells from the plate using a scraper and suspended in 0.1 M tris buffer (pH 8.0) containing 1 μg/ml pepstatin A (Sigma, P5318), 1 μg/ml leupeptin (Sigma, L2884) and 1 mM phenylmethylsulfonyl fluoride (Nacalai Tesque, 273-27). The cell membrane was destroyed by sonication. A supernatant collected by centrifugation was used as a crude enzyme fraction. The content of protein in the crude enzyme fraction was determined using Micro BCA Protein Assay Reagent (a product of Pierce sold by Takara Shuzo, P7411). 2.5 μL of 200 mM aqueous solution of glutathione (Nacalai Tesque, 170-50), 2.5 μL of a suspension containing L-adrenaline (Nacalai Tesque, 010-04) at a concentration of 200 mM in water, and 1 μL of 3 mM solution of arachidonic acid (Cayman, 90010.1) or 1 μL of 100 μg/mL solution of prostaglandin H2 (Cayman, 17020) were added to 100 μL of the sample from the crude enzyme fraction prepared as described above. The mixture was reacted at 37° C. for 30 minutes. The reaction was stopped by heating at 100° C. for 2 minutes. The content of prostaglandin E2 in the reaction mixture was measured using Prostaglandin E2 ELISA Kit (Neogen, 404110).

Row | Structure (SMILES) | TPA-induced IL-6 production [1] | production of human IL-10 [2] | production of prostaglandin E2, arachidonic acid added ([3]; FIG. 13) | production of prostaglandin E2, prostaglandin H2 added ([3]; FIG. 14)
1 | OC[C@H]1O[C@@H](O[C@H]2[C@H]3OC[C@@H]2OC(O)[C@H]3O)[C@H](O)[C@@H](O)[C@H]1O (mixture of isomers) [Agarobiose, agarobiose] | suppression of TPA-induced IL-6 production | activities of inhibiting the production |  | 
2 | OCC1OC(OC2C3COC2C(O)C(OC2C(O)C(CO)OC(OC4C5COC4C(O)C(OC4C(O)C(CO)OC(OC6C7COC6C(O)C(O)O7)C4O)O5)C2O)O3)C(O)C(O)C1O (stereo not shown) [Agarohexaose, agarohexaose] |  |  | suppressed as compared with the control | suppressed as compared with the control
